According to US9066866B2, “Direct cellular energy delivery system” (University of Louisville Research Foundation, Inc., priority 2002, dated 2015):

Key:
[1] = tested on: amputated hind legs; assay: Limb replantation after perfusion of amputated hind legs; type: in vivo, rats; settings: rat
Procedure: Hind legs were amputated from rats, and the major feed arteries for the severed limbs were cannulated for infusion of ATP-SUV, (1 mM ATP) solution. The limbs were perfused with ATP-SUV or control solutions (see Table 1) every 3 hours, or as deemed necessary by the change in tissue ATP levels. The arterial pressure of the limbs was monitored during infusion to decrease the chance of flow-induced injury, and to monitor the overall preservation of the severed limbs (higher perfusion pressures may indicate limb morbidity). Following the preservation period, the limbs were flushed with Ringers to remove traces of ATP-SUV. The limbs were then surgically reattached, and external indices of limb function after anastomoses were evaluated (limb color, evidence of microthrombi, coagulation, limb temperature). The animals prior to and following replantation received heparin to prevent hemostasis. In addition, animals were placed on antibiotic therapy to reduce infection. Control limbs were perfused with vehicle only, vehicle and ATP only, or vehicle and SUVs only.

[2] = tested on: HUVEC; assay: Vesicle absorption and release of 3H-ATP into HUVEC; type: cell-based, human
Procedure: To determine if ATP is also introduced into cells like carboxyfluorescein, vesicle absorption and release of ATP into HUVEC was followed using the ^3H-ATP-containing vesicles of Example 2. The vesicles were incubated with HUVEC for 5, 10, 15, 30, 45, 60, 90, 120, or 240 minutes. The result shown in FIG. 1 is the partition coefficient of ATP inside the cells after 1 hour. […] When the cells were washed repeatedly there was a significant change in the radioactivity of the cells.

For `Nc1ncnc2c1ncn2[C@@H]1O[C@H](COP(=O)(O)OP(=O)(O)OP(=O)(O)O)[C@@H](O)[C@H]1O` [^3H-ATP only, adenosine-5′-triphosphate (ATP)], the Limb outcome [1] was “necrosis”, the “change in radioactivity of the cells after repeated washes” value ([2]; 3H-ATP) was “complete loss of radioactivity” and the “partition coefficient of ATP inside the cells (percent incorporation, rank order)” value ([2]; after 1 hour, FIG. 1) was “then ^3H-ATP only, without vesicles”. For the same molecule, the “mode of cell entry concluded” value ([2]; from wash and fusion data) was “does not enter cells”.
